The results in this text go back to patent publication US5234917A, “Substituted 5-(alkyl)carboxamide imidazoles” (priority 1990, dated 1993).

This assay concerns pressor response to exogenous angiotensin II. In words: Inhibition of Pressor Response to Angiotensin II in Conscious Rats. The format is in vivo. As to conditions: Rattus norvegicus, mean arterial pressure, 250 mg/kg angiotensin II i.v. as printed, compounds given intravenously or orally at 3 to 300 mg/kg (route not given), read-out: IC50 (dose of compound needed to produce 50% inhibition of the control pressor response to angiotensin II). The procedure:
Angiotensin II antagonist activity of the compounds of Formula (I) is assessed by in vitro and in vivo methods. In vitro antagonist activity is determined by the ability of the compounds to compete with ^125 I-angiotensin II for binding to vascular angiotensin II receptors and by their ability to antagonize the contractile response to angiotensin II in the isolated rabbit aorta. In vivo activity is evaluated by the efficacy of the compounds to inhibit- the pressor response to exogenous angiotensin II in conscious rats and to lower blood pressure in a rat model of renin dependent hypertension.
Rats are prepared with indwelling femoral arterial and venous catheters and a stomach tube (Gellai et al., Kidney Int. 15:419, 1979). Two to three days following surgery the rats are placed in a restrainer and blood pressure is continuously monitored from the arterial catheter with a pressure transducer and recorded on a polygraph. The change in mean arterial pressure in response to intravenous injections of […] angiotensin II is compared at various time points prior to and following the administration of the compounds intravenously or orally at doses of 3 to 300 mg/kg. The dose of compound needed to produce 50% inhibition of the control response to angiotensin II (IC50) is used to estimate the potency of the compounds.

`CCCCc1ncc(CC(=O)N[C@@H](Cc2ccccc2)C(=O)O)n1Cc1ccccc1Cl` [Example 14, N-[{2-n-Butyl-1-(2-chlorophenyl)methyl-1H-imidazol-5-yl}methylcarbonyl]-L-phenylalanine]: the ED50 is 16 mg/kg.
